Test results from US20100267743A1, “3-(PHENOXYPYRROLIDIN-3-YL-METHYL)HETEROARYL, 3-(PHENYLPYRROLIDIN-3-YLMETHOXY)HETEROARYL, AND 3-(HETEROARYLPYRROLIDIN-3-YLMETHOXY)HETEROARYL COMPOUNDS” (priority 2009, published 2010).

Key:
NET = NET (Homo sapiens, UniProt P23975); experiment: hNET radioligand binding assay (3H-nisoxetine); parameters: expressed in transfected cells; host or cells: HEK-293; settings: hNET membranes (HEK-293), 1.0 nM 3H-nisoxetine; for Ki: read-out: NET pKi (converted)
Procedure: (§1) Membrane radioligand binding assays were used to measure inhibition of labeled ligand (^3H-citalopram or ^3H-nisoxetine or ^3H-WIN35428) binding to membranes prepared from cells expressing the respective human recombinant transporter (hSERT or hNET or hDAT) in order to determine the pKi values of test compounds at the transporters.
(§2) Recombinant human embryonic kidney (HEK-293) derived cell lines stably transfected with hSERT or hNET, respectively, were grown in DMEM medium supplemented with 10% dialyzed FBS (for hSERT) or FBS (for hNET), 100 μg/ml penicillin, 100 μg/ml streptomycin, 2 mM L-glutamine and 250 μg/ml of the aminoglycoside antibiotic G418, in a 5% CO2 humidified incubator at 37° C. When cultures reached 80% confluence, the cells were washed thoroughly in PBS (without […] and Mg^2+) and lifted with 5 mM EDTA in PBS. Cells were pelleted by centrifugation, resuspended in lysis buffer (10 mM Tris-HCl, pH7.5 containing 1 mM EDTA), homogenized, pelleted by centrifugation, then resuspended in 50 mM Tris-HCl, pH 7.5 and 10% sucrose at 4° C. Protein concentration of the membrane suspension was determined using a Bio-Rad Bradford Protein Assay kit. Membranes were snap frozen and stored at −80° C. Chinese hamster ovary membranes expressing hDAT (CHO-DAT) were purchased from PerkinElmer and stored at −80° C.
(§3) Binding assays were performed in a 96-well assay plate in a total volume of 200 μl assay buffer (50 mM Tris-HCl, 120 mM NaCl, 5 mM KCl, pH 7.4) with 0.5, 1, and 3 μg membrane protein, for SERT, NET and DAT, respectively.
(§4) Stock solutions (10 mM in DMSO) of test compound were prepared and serial dilutions made using Dilution Buffer (50 mM Tris-HCl, 120 mM NaCl, 5 mM KCl, pH 7.4, 0.1% BSA, 400 μM ascorbic acid).
(§5) Following a 60 minute incubation at 22° C. (or a period sufficient to reach equilibrium), the membranes were harvested by rapid filtration over a 96-well UniFilter GF/B plate, pretreated with 0.3% polyethyleneimine, and washed 6 times with 300 μl wash buffer (50 mM Tris-HCl, 0.9% NaCl, pH 7.5 at 4° C.). Plates were dried overnight at room temperature, ˜45 μl of MicroScint™-20 (Perkin Elmer) added and bound radioactivity quantitated via liquid scintillation spectroscopy. Inhibition curves and saturation isotherms were analyzed using GraphPad Prism Software package (GraphPad Software, Inc., San Diego, Calif.). IC50 values were generated from concentration response curves using the Sigmoidal Dose Response (variable slope) algorithm in Prism GraphPad. Kd and Bmax values for the radioligand were generated from saturation isotherms using the Saturation Binding Global Fit algorithm in Prism GraphPad. pKi (negative decadic logarithm of Ki) values for test compounds were calculated from the best-fit IC50 values, and the Kd value of the radioligand, using the Cheng-Prusoff equation (Cheng & Prusoff (1973) Biochem. Pharmacol. 22(23):3099-3108): Ki=IC50/(1+[L]/Kd), where [L]=concentration radioligand.

SERT = SERT (Homo sapiens, UniProt P31645); experiment: hSERT radioligand binding assay (3H-citalopram); parameters: expressed in transfected cells; host or cells: HEK-293; settings: hSERT membranes (HEK-293), 1.0 nM 3H-citalopram; for Ki: read-out: SERT pKi (converted)
SERT, sequence (P31645 whole entry): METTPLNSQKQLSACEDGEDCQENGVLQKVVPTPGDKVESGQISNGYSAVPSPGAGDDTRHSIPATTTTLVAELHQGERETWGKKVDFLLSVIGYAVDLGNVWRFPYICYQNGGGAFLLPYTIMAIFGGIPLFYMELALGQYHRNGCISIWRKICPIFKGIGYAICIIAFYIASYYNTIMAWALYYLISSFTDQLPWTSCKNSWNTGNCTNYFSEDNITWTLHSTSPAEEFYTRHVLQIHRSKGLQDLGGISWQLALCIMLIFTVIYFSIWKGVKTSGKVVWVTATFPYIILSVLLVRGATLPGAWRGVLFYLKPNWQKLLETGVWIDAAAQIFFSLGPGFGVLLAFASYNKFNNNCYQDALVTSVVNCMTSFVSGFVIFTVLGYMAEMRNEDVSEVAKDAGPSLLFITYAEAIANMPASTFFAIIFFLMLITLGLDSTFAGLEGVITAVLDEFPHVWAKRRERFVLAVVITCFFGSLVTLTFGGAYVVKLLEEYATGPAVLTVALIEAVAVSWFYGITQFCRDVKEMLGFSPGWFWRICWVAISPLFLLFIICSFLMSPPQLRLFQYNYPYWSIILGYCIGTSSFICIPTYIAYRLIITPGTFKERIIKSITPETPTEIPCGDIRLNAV
Procedure: as §1, §2, §3, §4, §5

NET, sequence (P23975 whole entry): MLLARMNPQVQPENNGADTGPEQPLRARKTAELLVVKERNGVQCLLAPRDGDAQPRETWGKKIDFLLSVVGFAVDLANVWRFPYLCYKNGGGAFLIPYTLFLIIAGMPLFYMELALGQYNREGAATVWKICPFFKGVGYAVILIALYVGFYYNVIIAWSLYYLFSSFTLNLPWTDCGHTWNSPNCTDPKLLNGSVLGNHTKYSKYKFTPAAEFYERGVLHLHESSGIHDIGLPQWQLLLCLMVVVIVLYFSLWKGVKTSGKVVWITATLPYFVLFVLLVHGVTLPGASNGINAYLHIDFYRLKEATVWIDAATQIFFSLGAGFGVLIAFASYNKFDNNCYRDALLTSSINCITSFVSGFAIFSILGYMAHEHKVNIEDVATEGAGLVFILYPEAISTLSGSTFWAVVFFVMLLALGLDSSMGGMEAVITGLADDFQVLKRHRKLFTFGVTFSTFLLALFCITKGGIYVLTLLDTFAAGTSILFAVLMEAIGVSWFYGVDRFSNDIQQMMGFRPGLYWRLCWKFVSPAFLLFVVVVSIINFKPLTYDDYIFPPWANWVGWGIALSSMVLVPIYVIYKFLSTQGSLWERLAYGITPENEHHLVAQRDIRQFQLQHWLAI

Structure (SMILES)	Ki (NET)	Ki (SERT)	NET pKi (NET)	SERT pKi (SERT)
FC(F)(F)c1cc(Cl)ccc1O[C@@H](c1ncco1)[C@H]1CCNC1.O=C(O)C(F)(F)F [6-18]			≧7.0	≧7.0
Cc1cc(Cl)c(O[C@H](c2cncc(Cl)c2)[C@@H]2CCNC2)c(Cl)c1 [Example 2-28, 3-Chloro-5-[(R)-(2,6-dichloro-4-methylphenoxy)-(S)-pyrrolidin-3-yl-methy1]-pyridine]			≧7.0	≧7.0
Cc1cc(Cl)ccc1O[C@@H](c1cnccn1)[C@H]1CCNC1.O=C(O)C(F)(F)F [10-5]			≧7.0	≧7.0
Fc1cc(Cl)ccc1OC(c1nccs1)C1CCNC1 [Example 5-32, 2-[(R)-(4-Chloro-2-fluorophenoxy)-((S)-pyrrolidin-3-yl-methyl]thiazole]	≤ 10 µM	≤ 0.1 µM		
COc1ccccc1O[C@H](c1cncc(Cl)c1)[C@H]1CCNC1 [Example 2-13, 3-Chloro-5-[(S)-(2-methoxyphenoxy)-(S)-pyrrolidin-3-yl-methyl]pyridine]	≤ 10 µM	≤ 10 µM		
Fc1cncc([C@H](Oc2cc(Cl)c(Cl)cc2Cl)[C@H]2CCNC2)c1 [Example 2-34, 3-Fluoro-5-[(R)-(S)-pyrrolidin-3-yl-(2,4,5-trichlorophenoxy)-methyl]pyridine]	≤ 10 µM	≤ 0.1 µM		
CCc1cc(F)ccc1O[C@@H](c1ncco1)[C@H]1CCNC1.O=C(O)C(F)(F)F [6-30]			≧7.0	≧7.0
FC(F)(F)c1cccnc1O[C@@H](c1ccccc1)[C@H]1CCNC1.O=C(O)C(F)(F)F [14-34]			≧5.0	≧7.0
COc1cc(Cl)ccc1O[C@@H](c1ncco1)[C@H]1CCNC1 [6-39]			≧7.0	≧7.0
Fc1c(Cl)nc(O[C@@H](c2ccccc2)[C@H]2CCNC2)c(F)c1Cl.O=C(O)C(F)(F)F [14-6]			≧7.0	≧7.0
COc1ccc(O[C@@H](c2ccccc2)[C@H]2CCNC2)cn1.O=C(O)C(F)(F)F [15-31]			≧5.0	≧7.0
O=C(O)C(F)(F)F.c1ccc([C@H](Oc2cccnc2OC2CCCC2)[C@H]2CCNC2)cc1 [15-13]			≧7.0	≧7.0
Fc1ccc(F)c(O[C@@H](c2cncnc2)[C@H]2CCNC2)c1Cl.O=C(O)C(F)(F)F [12-1]			≧7.0	≧5.0
Cc1cccc(O[C@@H](c2ncco2)[C@H]2CCNC2)c1 [6-46]	≤ 10 µM	≤ 10 µM		
Fc1ccc(O[C@@H](c2ccccc2)[C@H]2CCNC2)nc1.O=C(O)C(F)(F)F [14-29]			≧7.0	≧7.0
Fc1cc(Cl)c(OC(c2nccs2)C2CCNC2)c(Cl)c1 [Example 5-10, 2-[(R)-(2,6-Dichloro-4-fluorophenoxy)-((S)-pyrrolidin-3-yl-methyl]thiazole]	≤ 10 µM	≤ 10 µM		
FC(F)(F)Oc1ccccc1O[C@@H](c1ncco1)[C@H]1CCNC1 [6-37]	≤ 0.1 µM	≤ 10 µM		
Fc1ccc(O[C@@H](c2nccs2)[C@H]2CCNC2)cc1Cl [Example 5-30]			≧5.0	≧7.0

Structure (SMILES)	Ki (NET)	Ki (SERT)	NET pKi (NET)	SERT pKi (SERT)
O=C(O)C(F)(F)F.c1ccc2c(O[C@@H](c3ncco3)[C@H]3CCNC3)cccc2c1 [19-3]			≧7.0	≧7.0
Fc1cc(F)c(O[C@@H](c2ccncc2)[C@H]2CCNC2)c(F)c1 [Example 3-1, 4-[(R)-(S)-Pyrrolidin-3-yl-(2,4,6-trifluorophenoxy)methyl]pyridine]	≤ 10 µM	≤ 10 µM		
O=C(O)C(F)(F)F.c1ccc(COc2ccccc2O[C@@H](c2ncco2)[C@H]2CCNC2)cc1 [6-36]			≧7.0	≧5.0
Fc1cc(F)c(O[C@@H](c2ncco2)[C@H]2CCNC2)c(F)c1 [6-2]	≤ 10 µM	≤ 10 µM		
Cc1cc(Cl)cnc1O[C@@H](c1ccccc1)[C@H]1CCNC1 [Example 13]	≤ 0.1 µM	≤ 0.1 µM		
Cc1ccccc1O[C@H](c1nccs1)[C@H]1CCNC1 [Example 5-25]			≧7.0	≧7.0
Fc1ccc(OC(c2ccncc2)[C@H]2CCNC2)c(F)c1 (stereo partly drawn) [Example 3-3, 4-[(S)-(2,4-Difluorophenoxy)-pyrrolidin-3-yl-methyl]pyridine]	≤ 10 µM	≤ 10 µM		
Cc1cc(Cl)ccc1OC(c1nccs1)[C@H]1CCNC1 (single isomer, unassigned) [Example 4]	≤ 0.1 µM	≤ 0.1 µM		
FC(F)(F)c1cnc(O[C@@H](c2ccccc2)[C@H]2CCNC2)c(Cl)c1.O=C(O)C(F)(F)F [14-25]			≧5.0	≧7.0
CC(=O)c1cc(F)cc(F)c1O[C@@H](c1ncco1)[C@H]1CCNC1.O=C(O)C(F)(F)F [6-28]			≧7.0	≧5.0
Fc1cncc([C@@H](Oc2c(Cl)c(F)cc(F)c2Cl)[C@H]2CCNC2)c1 [Example 2-42, 3-[(S)-(2,6-Dichloro-3,5-difluorophenoxy)-(S)-pyrrolidin-3-yl-methyl]-5-fluoropyridine]	≤ 10 µM	≤ 0.1 µM		
Fc1cc(O[C@@H](c2ccccc2)[C@H]2CCNC2)ccn1.O=C(O)C(F)(F)F [16-6]			≧5.0	≧5.0
Clc1ccc(O[C@@H](c2ncco2)[C@H]2CCNC2)cc1.O=C(O)C(F)(F)F [6-47]			≧7.0	≧7.0
Clc1cncc(C(Oc2cc(Cl)c(Cl)cc2Cl)C2CCNC2)c1 [Example 2-1, 3-Chloro-5-[(R)-(S)-pyrrolidin-3-y1-(2,4,5-trichlorophenoxy)methyl]pyridine]	≤ 10 µM	≤ 0.1 µM		
Fc1cc(O[C@@H](c2ccccc2)[C@H]2CCNC2)cnc1F.O=C(O)C(F)(F)F [15-21]			≧7.0	≧5.0
FC(F)(F)c1ccccc1O[C@@H](c1ncco1)[C@H]1CCNC1 [6-17]	≤ 0.1 µM	≤ 10 µM		
Fc1ccc(O[C@@H](c2ccccc2)[C@H]2CCNC2)nc1F.O=C(O)C(F)(F)F [14-5]			≧7.0	≧5.0

The next lines start with results.

Ki (NET)	Ki (SERT)	Structure (SMILES)	NET pKi (NET)	SERT pKi (SERT)
≤ 0.1 µM	≤ 0.1 µM	COc1ccc2ccccc2c1OC(c1ccccc1)C1CCNC1 (stereo not shown) [21-8]		
≤ 10 µM	≤ 10 µM	COc1ccccc1O[C@H](c1cnccn1)[C@H]1CCNC1 [10-8]		
≤ 0.1 µM	≤ 0.1 µM	c1ccc(C(Oc2cccc3ccccc23)C2CCNC2)cc1 (stereo not shown) [21-1]		
≤ 10 µM	≤ 0.1 µM	FC(F)(F)Oc1cccc(C(Oc2cccc3ccccc23)C2CCNC2)c1 (stereo not shown) [21-7]		
≤ 0.1 µM	≤ 0.1 µM	Clc1cc(Cl)cc(O[C@@H](c2ccco2)[C@H]2CCNC2)c1 [Example 8-3, (S)-3-[(R)-(3,5-Dichlorophenoxy)furan-2-yl-methyl]pyrrolidine]		
≤ 10 µM	≤ 0.1 µM	Clc1cc(Cl)cc(O[C@H](c2cnccn2)[C@H]2CCNC2)c1 [10-10]		
≤ 10 µM	≤ 0.1 µM	Clc1cc(O[C@@H](c2ccccc2)C2CCNC2)ccn1 (stereo partly shown) [16-3]		
≤ 10 µM	≤ 0.1 µM	COc1ccc(O[C@@H](c2ccccc2)C2CCNC2)cn1 (stereo partly shown) [15-29]		
≤ 0.1 µM	≤ 0.1 µM	Clc1cc(Cl)cc(O[C@H](c2ccco2)[C@H]2CCNC2)c1 [Example 8-4, (S)-3-[(S)-(3,5-Dichlorophenoxy)furan-2-yl-methyl]pyrrolidine]		
